Source: PMC5745756, “N,N-disubstituted azines attenuate LPS-mediated neuroinflammation in microglia and neuronal apoptosis via inhibiting MAPK signaling pathways” (BMC Neuroscience, 2017)

Key:
Type in all cases: cell-based, murine
N2a cells = assay: Annexin V/PI staining (FACS) of N2a cells given conditioned media from BV-2 cells; details: CM of compound at each concentration tested (5, 10, 20 µM)
Method: An annexin V/PI apoptosis kit was used in accordance with the manufacturer’s instructions to quantify the percentage of cells undergoing apoptosis. First, BV-2 cells were incubated for 24 h with 5, 10, and 20 µM of compound 3 or LPS (100 ng/mL). Then, N2a cells were treated with the supernatant of the treated BV-2 cells and incubated. After 24 h, the cells were collected, washed twice with cold PBS, and re-suspended in binding buffer at a concentration of […]. Annexin V-FITC (5 µL) and PI (10 µL) were added, and the cells were incubated for 15 min at room temperature in the dark. Following incubation, 200 µL of binding buffer was added, and the cells were immediately analyzed by flow cytometry (FACSAriaIII; BD Biosciences, Franklin Lakes, NJ, USA). The flow cytometric analysis was performed using the Cell Quest software (BD Biosciences). The annexin V+/PI− cells and annexin V−/PI+ cells were used to identify apoptotic cells and necrotic cells, respectively. The procedure was repeated three times for each sample.
Fig. 4 Neuroprotection of compound 3 in LPS-activated microglia in N2a cells. […] An annexin V/PI apoptosis kit was used to quantify the percentage of cells undergoing apoptosis and necrosis (x-axis, annexin V; y-axis, PI) by using FACS analysis. […]

BV2 cells = assay: β-amyloid induced BV2 cell cytotoxicity
Excerpt: Here, we have investigated whether the compound 3 has any direct protective effects on microglia and neurons against LPS and TNF-α induced direct toxicity. As the aim of this study is to check the effectiveness of compound 3 against neurodegenerative conditions, here we checked the effect of this compound to protect microglial cells against β-amyloid induced cytotoxicity as shown in Fig. 5a. […] LPS treatment was unable to induce cellular toxicity to N2a cells (Fig. 5b). […] Compound 3 mediated neuroprotection in N2a cells is due to the inhibition of proinflammatory cytokines produced by LPS activated microglia.
Fig. 5 Cytoprotection of compound 3 in β-amyloid induced BV2 cell and LPS and TNF-α induced N2a cell toxicity

iNOS = assay: Western blot of LPS-induced iNOS expression in BV-2 cells
Method: (§1) BV-2 cells were seeded in a 6-well plate at a density of 6 × 10^5 cells/well and exposed to LPS (100 ng/mL) in the presence or absence of compound 3 for required time. After treatment, cells were collected and lysed in cell lysis buffer (50 mM Tris–HCl, pH 8.0, 0.1% SDS, 150 mM NaCl, 1% NP-40, 0.02% sodium azide, 0.5% sodium deoxycholate, 100 µg/mL PMSF, and […]) for 24 h at 4 °C. The protein content was measured using a Bradford assay. Equal amounts of protein (30 µg) were separated using SDS-PAGE and transferred to a nitrocellulose membrane. […]
Fig. 2 Effect of compound 3 on LPS-induced iNOS and COX2 expression in BV-2 cells. […] Similarly, LPS activation was made for 24 h as chronic BV2 activation and the iNOS and COX-2 expression was measured (d). α-Tubulin was used as the loading control. […] After 24 h, the culture medium was subsequently collected to measure the quantity of PGE2 (e), IL-6 (f), and TNF-α (g) using ELISA analysis. […]

[1] = test system: c-Jun N-terminal kinase (JNK); assay: Western blot of LPS-induced JNK phosphorylation in BV-2 cells; details: 5–20 µM; LPS 30 min, similar pattern at 24 h
Method: as §1, with “membrane. The membrane was blocked for 1 h with 5% skim milk in tris-buffered saline with Tween-20 (TBST) and then incubated for 12 h with primary antibodies against α-tubulin (Sigma-Aldrich Cat. no: T5168), iNOS (Bioscience Cat. no: 610333, COX-2 (Santa Cruz Cat. no: sc-1745), ERK (Cell Signaling Cat. no: 9107s), pERK (Cell Signaling Cat. no: 5013s), JNK (Cell Signaling Cat. no: 9252s), pJNK (Cell Signaling Cat. no: 4671s), p38 (Cell Signaling Cat. no: 8690s), and pP38 (Cell Signaling Cat. no: 9211s), followed by incubation for 1 h with horseradish peroxidase-conjugated secondary antibodies (Cell Signaling) at 15 °C.” for “membrane.”
Fig. 3 Effect of compound 3 on MAPK pathway in LPS-induced BV-2 cells. […] The phosphorylation of p38, JNK, and ERK was measured by western blotting (a–c). […]

## COc1cc(/C=C/C=N/N=C/C=C/c2ccc(O)c(OC)c2)ccc1O [Compound 3, 4,4′-(1E,1′E,3E,3′E)-3,3′-(hydrazine-1,2-diylidene)bis(prop-1-ene-1-yl-3-ylidene)bis(2-methoxyphenol)]
N2a cells
  Concentration of apoptotic and necrotic N2a cells: decrease
BV2 cells
  Microglial cell death against β-amyloid: significantly prevented
iNOS; 5, 10 and 20 µM, 30 min pretreatment, LPS 100 ng/mL 6 h
  Expression of iNOS: significantly reduced
iNOS; 24 h chronic LPS activation
  LPS induced iNOS activation, chronic: dramatically rescued
[1]
  LPS-induced phosphorylation of JNK: significantly inhibited
